Here are results for 38 compounds from ChEMBL document CHEMBL4483862, “Open-source discovery of chemical leads for next-generation chemoprotective antimalarials” (2018).

The assay relates to Plasmodium berghei. The assay can be described thus: Luciferase/luciferin-expressing antifolate-resistant parasites were used to infect a culture of HepG2 cells that were pre-incubated with compounds. Infected hepatocytes emit light due to the luciferase reaction. Assay results are presented as the percent inhibition of light emission compared to control. […]. In kind it is functional. As to conditions: sporozoite; for IC90: read-out: LUCIFERASE INFECTION ASSAY - IC90.

Where [1] appears, read: read-out: LUCIFERASE INFECTION ASSAY - IC50.

The structures appear in SMILES notation. pIC50: −log10 of the molar value.

As a reminder, the pIC50 is −log10 of the IC50, conventionally taken in molar units. In general, IC90 refers to the concentration needed for an effect of 90%.

In the case of `COc1ccc(-c2c(C)nn3c(=O)cc(CSc4ccc(C)cc4)[nH]c23)cc1`, the IC90 was found to be 3.91 µM. Also, the pIC50 (HEPG2TOX_HILL_SLOPE 2.74, HEPG2TOX_R_SQUARED 0.727, PBLUC_HILL_SLOPE 9.33, PBLUC_R_SQUARED 0.653, read-out: LUCIFERASE INFECTION ASSAY - IC50) was 5.51.

On to `O=C(Cn1ncc(Cl)c(Cl)c1=O)N1CCc2ccccc21`, for which the IC90 is over 10 µM. Besides, the pIC50 (HEPG2TOX_HILL_SLOPE 5.62, HEPG2TOX_R_SQUARED 0.657, PBLUC_HILL_SLOPE 20.9, PBLUC_R_SQUARED 0.129, read-out: LUCIFERASE INFECTION ASSAY - IC50) was 5.04.

On to `CCN1CCN(c2nc(CC(C)C)c3c(c2C#N)CCCC3)CC1`, for which the IC90 is over 10.1 µM. The pIC50 under setting [1] was under 5.00.

In the case of `NC(=O)c1cc(-c2ccccc2)sc1NC(=O)Nc1ccccc1F`, the IC90 was over 10 µM. Moreover, under setting [1], the pIC50 is 5.03.

For `Cc1onc(-c2c(Cl)cccc2Cl)c1-c1nc(-c2cc(-c3ccccc3)c(C(F)(F)F)s2)cs1`, the concentration for an effect of 90% (IC90) is over 6.14 µM. Also, the pIC50 (FFLUC_HILL_SLOPE 14.8, FFLUC_R_SQUARED 0.219, HEPG2TOX_HILL_SLOPE 0.104, HEPG2TOX_R_SQUARED 0.184, PBLUC_HILL_SLOPE 1.63, PBLUC_R_SQUARED 0.31, read-out: LUCIFERASE INFECTION ASSAY - IC50) is under 5.21.

For `O=[N+]([O-])c1ccc(-c2[nH]nc(-c3ccccc3)c2-c2ccc3ccccc3n2)cc1`, the IC90 amounted to 9.84 µM. For the same compound, under “FFLUC_HILL_SLOPE 2.78, FFLUC_R_SQUARED 0.0561, HEPG2TOX_HILL_SLOPE 6.28, HEPG2TOX_R_SQUARED 0.62, PBLUC_HILL_SLOPE 3.02, PBLUC_R_SQUARED 0.452, read-out: LUCIFERASE INFECTION ASSAY - IC50”, the pIC50 was 5.32.

For `CCN(CC)S(=O)(=O)c1ccc(SC(C)C(=O)Nc2ccc(OC(F)(F)F)cc2)nc1` (stereo unspecified), the IC90 is over 10 µM. For the same compound, the pIC50 (FFLUC_HILL_SLOPE 13.8, FFLUC_R_SQUARED 0.75, read-out: LUCIFERASE INFECTION ASSAY - IC50) is under 5.00.

Consider `Cc1c(C(=O)C(F)(F)F)c(-c2nn(-c3ccccc3)c(NC(=O)C(F)(F)F)c2C(=O)C(F)(F)F)c(C)n1-c1ccc(Br)cc1`, for which the 90% effect concentration (IC90) was over 10 µM. Moreover, the pIC50 (FFLUC_HILL_SLOPE 15.1, FFLUC_R_SQUARED 0.397, PBLUC_HILL_SLOPE 2.07, PBLUC_R_SQUARED 0.0694, read-out: LUCIFERASE INFECTION ASSAY - IC50) was 5.18.

Take `N#CCCN(CCC#N)C(=O)CSc1nnc(CCC(N)=O)n1C1CC1`: the IC90 was over 10 µM. The pIC50 under setting [1] was under 5.00.

As for `O=C1C2=C(Nc3ccccc3SC2c2ccccc2F)c2ccccc21` (stereo unspecified), the IC90 amounted to 2.61 µM. The pIC50 (PBLUC_HILL_SLOPE 1.25, PBLUC_R_SQUARED 0.725, read-out: LUCIFERASE INFECTION ASSAY - IC50) was 6.34.

As to `O=C1Nc2ccccc2SC1c1c(-c2ccc(Cl)cc2)cc2ccccn12` (stereo unspecified), the IC90 is over 10 µM. In addition, under setting [1], the pIC50 was under 5.00.

As to `C/C(=N\OCc1ccccc1)c1cc(-c2ccccc2)c(C(F)(F)F)s1`, the IC90 is over 8.79 µM. Further, the pIC50 (PBLUC_HILL_SLOPE 1.7, PBLUC_R_SQUARED 0.604, read-out: LUCIFERASE INFECTION ASSAY - IC50) was 5.31.

As for `COc1cccc(-c2nc(-c3ccc(O)cc3O)cs2)c1OC`, the 90% effect concentration (IC90) was over 10 µM. Further, the pIC50 (HEPG2TOX_HILL_SLOPE 1.65, HEPG2TOX_R_SQUARED 0.767, read-out: LUCIFERASE INFECTION ASSAY - IC50) is under 5.00.

`O=C1/C(=C\Nc2nnc(-c3ccccc3)c(-c3ccccc3)n2)c2ccccc2C(=O)N1c1cccc(C(F)(F)F)c1`: the concentration for an effect of 90% (IC90) is over 10 µM. Moreover, under setting [1], the pIC50 is under 5.00.

`CCc1cccc(CC)c1N(C(C)=O)c1nc(/C=C/C(=O)c2ccc3c(c2)OCCO3)cs1`: the IC90 stood at 3.81 µM. The pIC50 (FFLUC_HILL_SLOPE 12.1, FFLUC_R_SQUARED 0.466, HEPG2TOX_HILL_SLOPE 15.2, HEPG2TOX_R_SQUARED 0.81, PBLUC_HILL_SLOPE 12.5, PBLUC_R_SQUARED 0.644, read-out: LUCIFERASE INFECTION ASSAY - IC50) is 5.49.

In the case of `Cc1cccc(C(C)C)c1NC(=O)C(C)Sc1nc2scc(-c3ccccc3Cl)c2c(=O)n1C` (stereo unspecified), the IC90 was 1.19 µM. The pIC50 (HEPG2TOX_HILL_SLOPE 0.0632, HEPG2TOX_R_SQUARED 0.325, PBLUC_HILL_SLOPE 16, PBLUC_R_SQUARED 0.687, read-out: LUCIFERASE INFECTION ASSAY - IC50) was 5.99.

As to `CN(C)CCCCCCOc1ccc2c(c1)CCC1C2CCC2(C)C(=O)CCC12` (stereo unspecified), the concentration for an effect of 90% (IC90) is over 8.3 µM. Also, the pIC50 (PBLUC_HILL_SLOPE 2.65, PBLUC_R_SQUARED 0.355, read-out: LUCIFERASE INFECTION ASSAY - IC50) was 5.43.

Regarding `O=C(Cn1cnc2c(cnn2-c2ccccc2)c1=O)c1c[nH]c2ccccc12`, the IC90 is over 10 µM. Further, the pIC50 (HEPG2TOX_HILL_SLOPE 3.41, HEPG2TOX_R_SQUARED 0.825, PBLUC_HILL_SLOPE 1.56, PBLUC_R_SQUARED 0.738, read-out: LUCIFERASE INFECTION ASSAY - IC50) is 5.55.

Turning to `CCOc1ccccc1NC(=O)COC(=O)c1cc(S(=O)(=O)Nc2cccc(C)c2)ccc1C`, the 90% effect concentration (IC90) is over 10 µM. The pIC50 under setting [1] is under 5.00.

`CCc1ccccc1NCC(=O)Nc1cc(Cl)ccc1-n1cncn1`: the IC90 was over 10 µM. Further, the pIC50 under setting [1] was under 5.00.

For `COc1ccc(Nc2cc3c(cn2)cc(-c2ccc(C(=O)N(C)C)cc2)n3Cc2ccccc2)cc1`, the IC90 was 9.34 µM. In addition, the pIC50 (HEPG2TOX_HILL_SLOPE 6.65, HEPG2TOX_R_SQUARED 0.257, PBLUC_HILL_SLOPE 26.3, PBLUC_R_SQUARED 0.641, read-out: LUCIFERASE INFECTION ASSAY - IC50) was 5.07.

As to `COc1cc(OC)nc(Nc2nc(C(N)C3CCCCC3)cs2)n1` (stereo unspecified), the IC90 was over 9.44 µM. The pIC50 (PBLUC_HILL_SLOPE 67.6, PBLUC_R_SQUARED 0.122, read-out: LUCIFERASE INFECTION ASSAY - IC50) was 5.04.

Regarding `CCCCN1C(=O)C(=O)N(CC(=O)Nc2sc(Cc3ccc4c(c3)OCO4)c(C)c2C(=O)OCC)C1=O`, the 90% effect concentration (IC90) came to 0.0425 µM. Further, the pIC50 (PBLUC_HILL_SLOPE 37.8, PBLUC_R_SQUARED 0.839, read-out: LUCIFERASE INFECTION ASSAY - IC50) was 7.40.

Turning to `O=c1c(Cl)cc(C(F)(F)F)cn1Cc1csc(Nc2ccccc2)n1`, the 90% effect concentration (IC90) is over 10 µM. Further, the pIC50 (HEPG2TOX_HILL_SLOPE 6.73, HEPG2TOX_R_SQUARED 0.639, PBLUC_HILL_SLOPE 3.67, PBLUC_R_SQUARED 0.234, read-out: LUCIFERASE INFECTION ASSAY - IC50) is 5.05.

With `COc1ccc(-c2nc3ccc(NC(=O)Nc4ccc(C)cc4)cn3n2)cc1`, the concentration for an effect of 90% (IC90) was 7.53 µM. The pIC50 (HEPG2TOX_HILL_SLOPE 50, HEPG2TOX_R_SQUARED 0.291, PBLUC_HILL_SLOPE 5.1, PBLUC_R_SQUARED 0.322, read-out: LUCIFERASE INFECTION ASSAY - IC50) was 5.31.

`CC(OC(=O)c1ccc(C(C)C)cc1)C(=O)Nc1sccc1C(N)=O` (stereo unspecified): the IC90 is over 10 µM. The pIC50 under setting [1] was under 5.00.

Consider `O=C(/C=C/c1cn(Cc2ccccc2)nc1-c1ccccc1)N1CCN(c2ccncc2)CC1`, for which the IC90 worked out at 6.13 µM. Further, where the note is “PBLUC_HILL_SLOPE 2.17, PBLUC_R_SQUARED 0.608, read-out: LUCIFERASE INFECTION ASSAY - IC50”, the pIC50 is 5.65.

Turning to `CCn1nnc2cc(C(=O)Nc3cccc(Cl)c3N3CCOCC3)ccc21`, the IC90 is over 10 µM. For the same compound, under “HEPG2TOX_HILL_SLOPE 5.65, HEPG2TOX_R_SQUARED 0.159, PBLUC_HILL_SLOPE 1.72, PBLUC_R_SQUARED 0.0547, read-out: LUCIFERASE INFECTION ASSAY - IC50”, the pIC50 was 5.27.

Take `CNc1snc(C)c1C(=O)NC(C)c1ccc(OC(F)F)cc1` (stereo unspecified): the concentration for an effect of 90% (IC90) was 9.96 µM. Also, the negative-log IC50 (pIC50) under setting [1] is 5.05.

Turning to `O=C1c2ccccc2C(=Cc2ccc(C(F)(F)F)cc2)c2ccccc21`, the IC90 amounted to 4.1 µM. Further, under setting [1], the pIC50 is 5.45.

For the compound `Cc1cc(=O)oc2cc(OCC(=O)OCC(=O)c3c(-c4ccccc4)[nH]c4ccccc34)ccc12`, the IC90 was 7.83 µM. Moreover, under setting [1], the pIC50 was 5.73.

For the compound `FC(F)Sc1ccc(NC(=S)NCC(c2ccco2)N2CCCCC2)cc1` (stereo unspecified), the IC90 is over 10 µM. Moreover, the pIC50 under setting [1] was 5.21.

`COc1ccc(OCCCC(=O)N(Cc2ccccc2)c2nc3c(C)cccc3s2)cc1`: the IC90 was over 10 µM. Also, the pIC50 under setting [1] was under 5.00.

`CN(C)c1cccc(-c2cnc3sc(NCc4cccnc4)nn23)c1`: the IC90 is over 9.42 µM. Further, under setting [1], the pIC50 was under 5.03.

For the compound `O=C1NC(=S)S/C1=C\c1ccc(OCc2ccc(Cl)c(Cl)c2)cc1`, the IC90 was over 8.33 µM. Under “HEPG2TOX_HILL_SLOPE 0.0732, HEPG2TOX_R_SQUARED 0.0803, read-out: LUCIFERASE INFECTION ASSAY - IC50”, the negative logarithm of the IC50 (pIC50) is under 5.08.

As for `CC1(C)CS/C(=N\Cc2ccccc2)N1C(=O)C(c1ccccc1)c1ccccc1`, the IC90 was over 10 µM. Besides, the pIC50 (PBLUC_HILL_SLOPE 1.51, PBLUC_R_SQUARED 0.0539, read-out: LUCIFERASE INFECTION ASSAY - IC50) is under 5.00.

Consider `Cc1ccc(S(=O)(=O)c2c(C)nn(C(C)(C)C)c2OC(=O)c2cccc([N+](=O)[O-])c2)cc1`, for which the IC90 is over 10 µM. Also, the pIC50 under setting [1] is under 5.00.

Take `O=C(Nc1ccc(F)c(Cl)c1)N1CCc2nc(Nc3cc(Cl)cc(Cl)c3)ncc2C1`: the IC90 is over 7.07 µM. In addition, the pIC50 under setting [1] was under 5.15.
